Measured values taken from patent US4288609A, “Quaternary ammonium derivatives of adamantane with antimicrobic activity” (priority 1976, dated 1981).

Experiments:
[1] = system: Nicrosporum Canis ATCC 11621; assay: MIC mildews, Microsporum canis (Table 2); type: cell-based; settings: Sabourand broth
Experimental: (§1) The method for evaluating the activity in vitro against bacteria, fungi and protozoa consists in introducing calculated quantities of the substance, the activity of which it is desired to test, into culture media already inoculated with a predetermined number of test germs.
(§2) After 24 or 48 hours of incubation at 30° or 37° C., according to the micro-organism being tested, it is possible to evaluate the growth of the same in the culture broth; in this manner the minimum concentration (M.I.C.) which inhibits the growth of the micro-organisms in vitro is determined.
(§3) Inoculation with Trichophyton mentagrophytes and Microsporum canis was effected in a ratio of 1% of the volume of medium used.
(§4) For the fungi Sabourand broth was used as a culture medium, whilst for the protozoa Kupferberg Trichomonas broth with 5% of horse serum was used.

Pseudom.Aer. ATCC 1014 = assay: M.I.C. in vitro, gram- Pseudom. Aer. (Table 1); type: cell-based, Pseudomonas Aeruginosa
Experimental: as §1, §2
(§5) In table 1 there are recorded the M.I.C. values in γ/ml of the products subject of the present invention, against certain gram+ and gram- bacterial strains, some of which are pathogenic towards human beings.

[2] = system: Trych. Mentagr. 1st.Pastuer; assay: MIC mildews, Trichophyton mentagrophytes (Table 2); type: cell-based; settings: Sabourand broth
Experimental: as §1, §2, §3, §4

mice = assay: Acute oral toxicity in mice (Table 4); settings: oral, mice, 14 days
Experimental: The substances were administered orally to groups of 10 female mice CF1 of average weight of about 20 grams, in aqueous solution and in such way that the total volume administered would be in each case 1 ml/100 g of weight.

Candida Albic. SKF 2270 = assay: MIC yeasts, Candida albicans (Table 2); type: cell-based; settings: Sabourand broth
Experimental: as §1, §2
(§6) Inoculation with Candida albicans or Candida pseudotropicalis was made by diluting cultures grown for 24 h at 30° C. (cellular density inoculated 10^3 /ml).
as §4

Diplococcus Pneum. ISM = assay: M.I.C. in vitro, gram+ Diplococcus Pneum. (Table 1); type: cell-based
Experimental: as §1, §2, §5

Staph.Aureus Tour = assay: M.I.C. in vitro, gram+ Staph. Aureus (Table 1); type: cell-based, Staphylococcus Aureus
Experimental: as §1, §2, §5

[3] = system: Candida Pseudotrop. ATCC 2512; assay: MIC yeasts, Candida pseudotropicalis (Table 2); type: cell-based; settings: Sabourand broth
Experimental: as §1, §2, §6, §4

[4] = system: Trich. Vaginalis ISM 66/22; assay: MIC protozoa, Trichomonas vaginalis (Table 2); type: cell-based; settings: +10% serum (head); Kupferberg Trichomonas broth with 5% of horse serum
Experimental: as §1, §2
(§7) Inoculation with Trichomonas vaginalis and Trichomonas foetus, obtained from cultures transplanted every other day to make them lively, was effected in a ratio of 3.5% of the volume of medium used.
as §4

Trich. Foetus ISM 66/23 = assay: MIC protozoa, Trichomonas foetus (Table 2); type: cell-based; settings: +10% serum (head); Kupferberg Trichomonas broth with 5% of horse serum
Experimental: as §1, §2, §7, §4

[5] = system: Streptococ. Henclyt. 0203; assay: M.I.C. in vitro, gram+ Streptococ. Henclyt. (Table 1); type: cell-based
Experimental: as §1, §2, §5

Klens. Pneum. ISM = assay: M.I.C. in vitro, gram- Klens. Pneum. (Table 1); type: cell-based
Experimental: as §1, §2, §5

Proteus Vulc. ATCC 881 = assay: M.I.C. in vitro, gram- Proteus Vulc. (Table 1); type: cell-based
Experimental: as §1, §2, §5

Esch. Coli. SKF 12140 = assay: M.I.C. in vitro, gram- Esch. Coli (Table 1); type: cell-based, Escherichia Coli
Experimental: as §1, §2, §5

Structure (SMILES): CCCCCCCCCC[N+](C)(C)CCOC(=O)C12CC3CC(CC(C3)C1)C2 (single isomer, unassigned) [Example 2, n-Decyl-dimethyl-(1-adamantane-carboxy)-ethyl-ammonium chloride]
- MIC ([1]; +10% serum): 20 µg/mL
- MIC ([1]; without serum): 0.5 µg/mL
- M.I.C. (Pseudom.Aer. ATCC 1014; +10% serum): 100 µg/mL
- M.I.C. (Pseudom.Aer. ATCC 1014; without serum): 50 µg/mL
- MIC ([2]; +10% serum): 20 µg/mL
- MIC ([2]; without serum): 0.5 µg/mL
- LD50 (mice): 1020 mg/kg
- MIC (Candida Albic. SKF 2270; +10% serum): 50 µg/mL
- MIC (Candida Albic. SKF 2270; without serum): 5 µg/mL
- M.I.C. (Diplococcus Pneum. ISM; +10% serum): 10 µg/mL
- M.I.C. (Diplococcus Pneum. ISM; without serum): 2 µg/mL
- M.I.C. (Staph.Aureus Tour; +10% serum): 5 µg/mL
- M.I.C. (Staph.Aureus Tour; without serum): 0.2 µg/mL
- MIC ([3]; +10% serum): 50 µg/mL
- MIC ([3]; without serum): 0.5 µg/mL
- MIC [4]: 20 µg/mL
- MIC (Trich. Foetus ISM 66/23): 10 µg/mL
- M.I.C. ([5]; +10% serum): 1 µg/mL
- M.I.C. ([5]; without serum): 0.2 µg/mL
- M.I.C. (Klens. Pneum. ISM; +10% serum): 100 µg/mL
- M.I.C. (Klens. Pneum. ISM; without serum): 20 µg/mL
- M.I.C. (Proteus Vulc. ATCC 881; +10% serum): 100 µg/mL
- M.I.C. (Proteus Vulc. ATCC 881; without serum): 20 µg/mL
- M.I.C. (Esch. Coli. SKF 12140; +10% serum): 100 µg/mL
- M.I.C. (Esch. Coli. SKF 12140; without serum): 10 µg/mL
